In patent publication US20230322761A1, “DEGRADATION OF BRUTON'S TYROSINE KINASE (BTK) BY CONJUGATION OF BTK INHIBITORS WITH E3 LIGASE LIGAND AND METHODS OF USE” (BEIGENE, LTD., priority 2020, published 2023):

Target: T1, BTK (Homo sapiens, UniProt Q06187)
T1 construct: endogenous in cells; host or cells: TMD-8 cells
Assay: BTK degradation in TMD-8 cells, HTRF assay after 6 h treatment
Format: cell-based
Conditions: for DC50: IC50 (DC50) of BTK degradation; for Dmax: TMD8, maximum percentage of inhibition (degradation)
Protocol: TMD-8 cells are treated with compounds diluted in 0.2% DMSO, dilution is done according to the following protocol: (1) make 500× stock solution in DMSO from 1 mM by 6-fold dilution, total 8 doses were included; (2) make 2× solution in cell culture medium by transferring 0.5 μl 500× stock solution into 125 μl medium; (3) 15 μl of 2× solution is added to cells and incubate for 6 h.
After 6 h treatment, add 10 μl 4×lysis buffer to each well; seal the plate and incubate 30 min at room temperature on a plate shaker; Once the cells are lysed, 16 μL of cell lysate are transferred to a PE 384-well HTRF detection plate; 4 μL of pre-mixed HTRF antibodies are added to each well; Cover the plate with a plate sealer, spin 1000 rpm for 1 min, Incubate overnight at room temperature; Read on BMG PheraStar with HTRF protocol (337 nm-665 nm-620 nm).
The IC50 (DC50) value of a compound can be obtained by fitting the following equation
Y=Bottom+(TOP−Bottom)/(1+((IC50/X)^hillslope))
Wherein, X and Y are known values, and IC50, Hillslope, Top and Bottom are the parameters obtained by fitting with software. Y is the inhibition percentage (calculated from the equation), X is the concentration of the compound; IC50 is the concentration of the compound when the 50% inhibition is reached. The smaller the IC50 value is, the stronger the inhibitory ability of the compound is. Vice versa, the higher the IC50 value is, the weaker the ability the inhibitory ability of the compound is; Hillslope represents the slope of the fitted curve, generally around 1*; Bottom represents the minimum value of the curve obtained by data fitting, which is generally 0%±20%; Top represents the maximum value of the curve obtained by data fitting, which is generally 100%±20%. The experimental data were fitted by calculating and analyzing with Dotmatics data analysis software.

T1 sequence (Q06187 whole entry): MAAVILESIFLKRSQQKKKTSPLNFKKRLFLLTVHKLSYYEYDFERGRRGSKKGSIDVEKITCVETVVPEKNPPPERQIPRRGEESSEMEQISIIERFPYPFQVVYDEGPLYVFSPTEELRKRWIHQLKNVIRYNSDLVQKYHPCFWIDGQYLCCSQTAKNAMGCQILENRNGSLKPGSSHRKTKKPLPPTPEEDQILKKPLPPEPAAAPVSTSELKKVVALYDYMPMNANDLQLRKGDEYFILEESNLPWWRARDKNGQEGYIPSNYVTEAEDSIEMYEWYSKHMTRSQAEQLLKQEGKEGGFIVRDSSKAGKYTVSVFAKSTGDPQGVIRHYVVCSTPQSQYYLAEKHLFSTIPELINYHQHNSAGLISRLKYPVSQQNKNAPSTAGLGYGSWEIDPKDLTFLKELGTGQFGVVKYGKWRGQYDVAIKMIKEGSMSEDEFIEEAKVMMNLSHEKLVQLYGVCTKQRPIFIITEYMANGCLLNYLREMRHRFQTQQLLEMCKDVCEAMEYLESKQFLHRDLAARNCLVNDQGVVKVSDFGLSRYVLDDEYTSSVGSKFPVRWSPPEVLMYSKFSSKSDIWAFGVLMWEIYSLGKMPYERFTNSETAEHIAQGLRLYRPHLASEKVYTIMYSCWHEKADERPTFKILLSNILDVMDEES

DC50 | Dmax | SMILES
16.9 nM | 92.8% | Cc1c(-c2n[nH]c3ncc(-c4ccc(C5CCN(CCc6ccc(C7CCC(=O)NC7=O)cc6)CC5)cc4)cc23)ccc(CNC(=O)c2nc(C(C)(C)C)no2)c1F (centres unmarked) [Example 19, 3-(tert-butyl)-N-(4-(5-(4-(1-(4-(2,6-dioxopiperidin-3-yl)phenethyl)piperidin-4-yl)phenyl)-1H-pyrazolo[3,4-b]pyridin-3-yl)-2-fluoro-3-methylbenzyl)-1,2,4-oxadiazole-5-carboxamide]
3.95 nM | 96.4% | Cc1cc(-c2n[nH]c3ncc(-c4ccc(N5CCN(CC6CCN(c7ccc(N8CCC(=O)NC8=O)cc7)CC6)CC5)cc4)cc23)ccc1CNC(=O)c1nc(C(C)(C)C)no1 [Example 20, 3-(tert-butyl)-N-(4-(5-(4-(4-((1-(4-(2,4-dioxotetrahydropyrimidin-1(2H)-yl)phenyl)piperidin-4-yl)methyl)piperazin-1-yl)phenyl)-1H-pyrazolo[3,4-b]pyridin-3-yl)-2-methylbenzyl)-1,2,4-oxadiazole-5-carboxamide]
8.62 nM | 97.5% | Cc1cc(-c2n[nH]c3ncc(-c4ccc(N5CCN(CC6CCN(c7ccc(N8CCC(=O)NC8=O)cc7)CC6)CC5)cc4)cc23)ccc1[C@@H](C)NC(=O)c1nc(C(C)(C)C)no1 [Example 21, (R)-3-(tert-butyl)-N-(1-(4-(5-(4-(4-((1-(4-(2,4-dioxotetrahydropyrimidin-1(2H)-yl)phenyl)piperidin-4-yl)methyl)piperazin-1-yl)phenyl)-1H-pyrazolo[3,4-b]pyridin-3-yl)-2-methylphenyl)ethyl)-1,2,4-oxadiazole-5-carboxamide]
9.1 nM | 97.6% | Cc1cc(-c2n[nH]c3ncc(-c4ccc(N5CCN(CC6CCN(c7ccc(N8CCC(=O)NC8=O)cc7)CC6)CC5)cc4)cc23)ccc1CNC(=O)c1noc(C(C)(C)C)n1 [Example 22, 5-(tert-butyl)-N-(4-(5-(4-(4-((1-(4-(2,4-dioxotetrahydropyrimidin-1(2H)-yl)phenyl)piperidin-4-yl)methyl)piperazin-1-yl)phenyl)-1H-pyrazolo[3,4-b]pyridin-3-yl)-2-methylbenzyl)-1,2,4-oxadiazole-3-carboxamide]
4.04 nM | 96% | Cc1cc(-c2n[nH]c3ncc(-c4ccc(C5CCN(CCC6CCN(c7ccc(N8CCC(=O)NC8=O)c(Cl)c7)CC6)CC5)cc4)cc23)ccc1CNC(=O)c1nc(C(C)(C)C)no1 [Example 23, 3-(tert-butyl)-N-(4-(5-(4-(1-(2-(1-(3-chloro-4-(2,4-dioxotetrahydropyrimidin-1(2H)-yl)phenyl)piperidin-4-yl)ethyl)piperidin-4-yl)phenyl)-1H-pyrazolo[3,4-b]pyridin-3-yl)-2-methylbenzyl)-1,2,4-oxadiazole-5-carboxamide]
4.62 nM | 97.3% | Cc1cc(-c2n[nH]c3ncc(-c4ccc(C5CCN(CCCOc6ccc(NC7CCC(=O)NC7=O)c(C)c6)CC5)cc4)cc23)ccc1CNC(=O)c1nc(C(C)(C)C)no1 (centres unmarked) [Example 24, 3-(tert-butyl)-N-(4-(5-(4-(1-(3-(4-((2,6-dioxopiperidin-3-yl)amino)-3-methylphenoxy)propyl)piperidin-4-yl)phenyl)-1H-pyrazolo[3,4-b]pyridin-3-yl)-2-methylbenzyl)-1,2,4-oxadiazole-5-carboxamide]
8.16 nM | 96.7% | Cc1cc(-c2n[nH]c3ncc(-c4ccc(C5CCN(CCc6ccc(C7CCC(=O)NC7=O)c7ccccc67)CC5)cc4)cc23)ccc1CNC(=O)c1nc(C(C)(C)C)no1 (centres unmarked) [Example 25, 3-(tert-butyl)-N-(4-(5-(4-(1-(2-(4-(2,6-dioxopiperidin-3-yl)naphthalen-1-yl)ethyl)piperidin-4-yl)phenyl)-1H-pyrazolo[3,4-b]pyridin-3-yl)-2-methylbenzyl)-1,2,4-oxadiazole-5-carboxamide]
